Reference: patent US9815831B2, “3,5-disubstituted-3H-imidazo[4,5-B]pyridine and 3,5-disubstituted-3H-[1,2,3]triazolo[4,5-B] pyridine compounds as modulators of c-Met protein kinases” (Rhizen Pharmaceuticals SA, priority 2012, dated 2017)
Where two headings read alike, the source gives them in different places.

What was measured:
[1] = molecular target: T1, human recombinant Met kinase (Homo sapiens, UniProt P08581); assay: Colorimetric determination of c-Met kinase activity (HTScan Met Kinase Assay Kit); format: biochemical; conditions: for inhibition: cells marked *: tested @ 300 nM, read-out: c-Met Enzyme % inhibition; for inhibition at 0.1 µM: 100 nM (cells without *), read-out: c-Met Enzyme % inhibition @ 100 nM
T1 construct: purchased Cell Signalling Technology, Beverly, Mass
T1 sequence (P08581 25-1390): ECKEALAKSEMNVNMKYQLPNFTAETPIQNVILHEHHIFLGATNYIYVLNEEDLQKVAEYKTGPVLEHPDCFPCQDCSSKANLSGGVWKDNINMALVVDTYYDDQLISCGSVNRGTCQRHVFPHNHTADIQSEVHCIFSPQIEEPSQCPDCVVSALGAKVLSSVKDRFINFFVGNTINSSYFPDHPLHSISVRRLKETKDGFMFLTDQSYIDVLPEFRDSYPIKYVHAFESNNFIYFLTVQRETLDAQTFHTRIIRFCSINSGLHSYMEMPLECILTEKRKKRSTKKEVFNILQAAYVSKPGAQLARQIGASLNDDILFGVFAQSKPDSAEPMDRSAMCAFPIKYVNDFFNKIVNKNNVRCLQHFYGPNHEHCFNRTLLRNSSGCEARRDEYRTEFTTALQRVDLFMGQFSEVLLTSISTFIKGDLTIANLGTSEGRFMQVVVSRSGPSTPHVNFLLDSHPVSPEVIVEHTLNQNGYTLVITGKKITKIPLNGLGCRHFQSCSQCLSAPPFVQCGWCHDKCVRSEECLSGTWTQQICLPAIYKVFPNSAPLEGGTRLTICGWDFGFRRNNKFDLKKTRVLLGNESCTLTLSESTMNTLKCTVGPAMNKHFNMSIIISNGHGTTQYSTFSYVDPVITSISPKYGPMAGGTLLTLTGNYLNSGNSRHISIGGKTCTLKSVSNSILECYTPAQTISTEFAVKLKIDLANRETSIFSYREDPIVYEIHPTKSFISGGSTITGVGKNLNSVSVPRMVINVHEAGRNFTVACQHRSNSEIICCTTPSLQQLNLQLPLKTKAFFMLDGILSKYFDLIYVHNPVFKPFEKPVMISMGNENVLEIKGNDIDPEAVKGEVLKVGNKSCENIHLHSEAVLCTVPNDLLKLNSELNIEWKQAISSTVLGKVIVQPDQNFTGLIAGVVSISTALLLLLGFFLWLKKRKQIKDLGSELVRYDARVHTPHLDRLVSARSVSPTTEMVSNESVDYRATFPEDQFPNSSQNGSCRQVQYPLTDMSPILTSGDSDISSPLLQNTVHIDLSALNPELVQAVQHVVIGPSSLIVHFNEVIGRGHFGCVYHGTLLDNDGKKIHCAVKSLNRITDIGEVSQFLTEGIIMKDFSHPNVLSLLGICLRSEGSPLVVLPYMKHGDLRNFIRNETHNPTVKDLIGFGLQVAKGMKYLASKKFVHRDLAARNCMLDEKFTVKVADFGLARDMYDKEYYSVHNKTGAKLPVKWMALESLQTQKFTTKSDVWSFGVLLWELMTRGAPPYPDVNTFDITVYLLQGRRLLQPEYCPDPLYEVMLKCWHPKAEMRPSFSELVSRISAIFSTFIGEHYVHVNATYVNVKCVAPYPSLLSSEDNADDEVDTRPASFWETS
Excerpt: 1. MET Kinase Assay Protocol:
Colorimetric Determination of c-Met Kinase Activity
The receptor tyrosine kinase c-Met is a heterodimeric transmembrane glycoprotein involved in several cellular processes that aid in tumor progression. Phosphorylation of the tyrosine residues in the c-Met kinase domain is critical for its activity and the resulting down-stream effects. The colorimetric assay allows detection of the phosphorylated form of a biotinylated peptide upon activation of human recombinant Met kinase.
MET Kinase Assay Protocol:
c-Met Kinase activity shall be determined using an HTScan® Met Kinase Assay Kit (Cell Signalling Technology, Beverly, Mass.) with modifications. All incubations are carried out at room temperature. Briefly, 12.5 μl of a 4× reaction cocktail (DTT/Kinase buffer containing appropriate quantity of human Met kinase) is added to each well of a 96-well plate containing 12.5 μl pre-diluted compound of interest and incubated for 5 minutes. After the initial incubation, 25 μl/well of 2×ATP/biotinylated peptide is added and incubated for an additional 30 minutes. The reaction is terminated by the addition of 50 μl/well stop buffer (50 mM EDTA, pH 8.0). The reaction mixture (25 μl/well) is then transferred to a streptavidin coated plate (Perkin Elmer, Cat#4009-0010) containing 75 μl dH2O and incubated for 60 minutes. The plate is washed with 200 μl/well wash buffer (1×PBS, 0.05% Tween-20). After washing, 100 μl/well phospho-tyrosine mAb (1:1000 in wash buffer containing 1% BSA) is added and incubated for 60 minutes. After another round of washes, 100 μl/well europium labelled anti-mouse IgG (1:500 in wash buffer containing 1% BSA) is added and incubated for an additional 30 minutes. Following additional washes, 100 μl/well Delfia^(R) enhancement solution (Perkin Elmer, Cat#1244-105) is added and incubated for 45 minutes. Florescence is measured on a microplate reader (BMG Labtech., Germany) at 340 nm (excitation) and 615 nm (emission) for calculating % inhibition. Data generated can be analyzed further using Graphpad Prism (Graphpad software, San Diego Calif.) for determination of IC50.
Results: The results are as given below in Table 4A, 4B and 4C as % Inhibition or IC50 of c-Met

[2] = molecular target: T1, human recombinant Met kinase; assay: as above; format: biochemical; conditions: read-out: c-Met Enzyme IC50
MKN-45 = assay: Inhibition of MKN-45 proliferation (MTT); format: cell-based, human; conditions: Homo sapiens; for GI50: read-out: MKN45 GI50; for inhibition at 0.1 µM: 100 nM, read-out: MKN45 % inhibition @ 100 nM
Method: 3. Inhibition of MKN-45 Proliferation:
Cell proliferation assays were carried out using the high Met expressing human gastric adenocarcinoma cell line, MKN-45, according to the following schedule: • Day 1: Cells were plated in 96-well plates in complete growth medium. • Day 2: Compounds at desired concentrations were added. • Day 5: Cell viability was determined using the 3-[4,5-dimethylthiazol-2-yl]-2,5-diphenyltetrazolium bromide (MTT) dye reduction test. Results: The results are as given as % Inhibition of MKN-45 proliferation at 100 nM and GI50 values in Table 4A to 4C above. 4. Inhibition of c-Met Kinase Phosphorylation in MKN-45 Cells: […]

[3] = MKN-45, Table 4A, MKN-45 proliferation
[4] = MKN-45, Table 4C, MKN-45 proliferation
[5] = MKN-45, Table 4B, MKN-45 proliferation

| Structure (SMILES) | inhibition ([1]; Table 4C) | inhibition ([1]; Table 4A) | inhibition at 0.1 µM (MKN-45; [4]) | inhibition at 0.1 µM (MKN-45; [3]) | further results |
| --- | --- | --- | --- | --- | --- |
| NC(=O)c1c(F)cc(-c2ccc3nnn(Cc4ccc5ncccc5c4)c3n2)cc1F [Example 1003, 2,6-difluoro-4-(3-(quinolin-6-ylmethyl)-3H-[1,2,3]triazolo[4,5-b]pyridin-5-yl)benzamide 2,2,2-trifluoroacetate] | 75 to 100% |  |  |  | IC50 ([2]; Table 4C): < 25 nM |
| CON=C(C)c1ccc2nnn(Cc3cc4cccnc4cc3F)c2n1 (racemic) [Example 60, 1-(3-((7-fluoroquinolin-6-yl)methyl)-3H-[1,2,3]triazolo[4,5-b]pyridin-5-yl) ethanone O-methyl oxime] |  | 75 to 100% |  |  | GI50 (MKN-45; [3]): 50 to 100 nM; IC50 ([2]; Table 4A): 25 to 50 nM |
| NC(=O)c1c(F)cc(-c2ccc3nnn(Cc4cc5cccnc5cc4F)c3n2)cc1F [Example 1007, 2,6-difluoro-4-(3-((7-fluoroquinolin-6-yl)methyl)-3H-[1,2,3]triazolo[4,5-b]pyridin-5-yl)benzamide] |  |  | 75 to 100% |  | GI50 (MKN-45; [4]): < 25 nM; IC50 ([2]; Table 4C): < 25 nM |
| NC(=O)c1ccc(-c2ccc3ncn(Cc4ccc5ncccc5c4)c3n2)cc1Cl [Example 1008, 2-Chloro-4-(3-(quinolin-6-ylmethyl)-3H-imidazo[4,5-b]pyridin-5-yl)benzamide] | 75 to 100% |  | 25 to 50% |  | GI50 (MKN-45; [4]): 100 to 250 nM; IC50 ([2]; Table 4C): 50 to 100 nM |
| C/C(=N\NC(N)=S)c1ccc2nnn(Cc3cc4cccnc4cc3F)c2n1 [Example 57, 2-(1-(3-((7-fluoroquinolin-6-yl)methyl)-3H-[1,2,3]triazolo[4,5-b]pyridin-5-yl)ethylidene)hydrazinecarbothioamide] |  | 75 to 100% |  | 50 to 75% | GI50 (MKN-45; [3]): 25 to 50 nM; IC50 ([2]; Table 4A): 25 to 50 nM |
| C/C(=N\NC(N)=S)c1ccc2nnn(Cc3ccc4ncccc4c3)c2n1 [Example 50, 2-(1-(3-(quinolin-6-ylmethyl)-3H-[1,2,3]triazolo[4,5-b]pyridin-5-yl)ethylidene)hydrazinecarbothioamide] |  | 75 to 100% |  | 75 to 100% | GI50 (MKN-45; [3]): 25 to 50 nM; IC50 ([2]; Table 4A): 25 to 50 nM |
| C/C(=N\Nc1ccccn1)c1ccc2nnn(Cc3ccc4ncccc4c3)c2n1 [Example 51, 6-((5-(1-(2-(pyridin-2-yl)hydrazono)ethyl)-3H-[1,2,3]triazolo[4,5-b]pyridin-3-yl)methyl)quinoline] |  | < 25% |  | < 25% |  |
| C/C(=N\NC(=O)OC(C)(C)C)c1ccc2nnn(Cc3ccc4ncccc4c3)c2n1 [Example 53, tert-butyl 2-(1-(3-(quinolin-6-ylmethyl)-3H-[1,2,3]triazolo[4,5-b]pyridin-5-yl)ethylidene)hydrazinecarboxylate] |  | < 25% |  | < 25% |  |
| O=C(NOCCO)c1ccc(-c2ccc3nnn(Cc4ccc5ncccc5c4)c3n2)cc1 [Example 22, N-(2-hydroxyethoxy)-4-(3-(quinolin-6-ylmethyl)-3H-[1,2,3]triazolo[4,5-b]pyridin-5-yl)benzamide] |  |  |  | 50 to 75% | inhibition at 0.1 µM ([1]; Table 4A): 75 to 100%; GI50 (MKN-45; [3]): 50 to 100 nM |
| Cc1cc(-c2ccc3nnn(Cc4ccc5ncccc5c4)c3n2)ccc1C(=O)NOC[C@@H](C)O [Example 38, (R)—N-(2-hydroxypropoxy)-2-methyl-4-(3-(quinolin-6-ylmethyl)-3H-[1,2,3]triazolo[4,5-b]pyridin-5-yl)benzamide] |  |  |  | 75 to 100% | inhibition at 0.1 µM ([1]; Table 4A): 75 to 100% |
| C/C(=N\OCCO)c1ccc2nnn(Cc3cc4cccnc4cc3F)c2n1 [Example 61, 1-(3-((7-fluoroquinolin-6-yl)methyl)-3H-[1,2,3]triazolo[4,5-b]pyridin-5-yl) ethanone O-2-hydroxyethyl oxime] |  | 75 to 100% |  |  | GI50 (MKN-45; [3]): 50 to 100 nM; IC50 ([2]; Table 4A): 25 to 50 nM |
| CCNC(=O)c1c(F)cc(-c2ccc3ncn(Cc4ccc5ncccc5c4)c3n2)cc1F [Example 1016, N-ethyl-2,6-difluoro-4-(3-(quinolin-6-ylmethyl)-3H-imidazo[4,5-b]pyridin-5-yl)benzamide] | 25 to 50% |  | < 25% |  |  |
| Cc1nc2ccc(-c3ccc(C(N)=O)c(Cl)c3)nc2n1Cc1ccc2ncccc2c1 [Example 1020, 2-chloro-4-(2-methyl-3-(quinolin-6-ylmethyl)-3H-imidazo[4,5-b]pyridin-5-yl)benzamide] | < 25% |  | 50 to 75% |  |  |
| CC(c1ccc2ncccc2c1)n1cnc2ccc(-c3ccc(C(N)=O)c(Cl)c3)nc21 (stereo not shown) [Example 1021, 2-chloro-4-(3-(1-(quinolin-6-yl)ethyl)-3H-imidazo[4,5-b]pyridin-5-yl)benzamide] | < 25% |  | 25 to 50% |  |  |
| NC(=O)CNC(=O)c1ccc(-c2ccc3nnn(Cc4ccc5cccnc5c4)c3n2)cc1 [Example 1, N-(2-amino-2-oxoethyl)-4-(3-(quinolin-7-ylmethyl)-3H-[1,2,3]triazolo[4,5-b]pyridin-5-yl) benzamide] |  |  |  |  | inhibition at 0.1 µM ([1]; Table 4A): 75 to 100%; inhibition at 0.1 µM (MKN-45; MKN-45, Table 4A, cell printed as a number, not a class letter): 0% |
| C/C(=N\NC(N)=O)c1ccc2ncn(Cc3ccc4ncccc4c3)c2n1 [Example 107, 2-(1-(3-(quinolin-6-ylmethyl)-3H-imidazo[4,5-b]pyridin-5-yl)ethylidene)hydrazinecarboxamide] |  |  |  |  | inhibition at 0.1 µM (MKN-45; [5]): < 25%; GI50 (MKN-45; [5]): 250 to 1000 nM; IC50 ([2]; Table 4B): 100 to 250 nM |
| NC(=O)c1ccc(-c2ccc3ncn(Cc4c(F)cc5ncccc5c4F)c3n2)cc1Cl [Example 1023, 2-chloro-4-(3-((5,7-difluoroquinolin-6-yl)methyl)-3H-imidazo[4,5-b]pyridin-5-yl)benzamide] | 75 to 100% |  | 50 to 75% |  | GI50 (MKN-45; [4]): < 25 nM; IC50 ([2]; Table 4C): < 25 nM |
| CONC(=O)c1c(F)cc(-c2ccc3ncn(Cc4ccc5ncccc5c4)c3n2)cc1F [Example 105, 2,6-difluoro-N-methoxy-4-(3-(quinolin-6-ylmethyl)-3H-imidazo[4,5-b]pyridin-5-yl)benzamide] |  |  |  |  | inhibition ([1]; Table 4B): 25 to 50%; inhibition at 0.1 µM (MKN-45; [5]): < 25% |
| COC(=O)N/N=C(\C)c1ccc2nnn(Cc3ccc4ncccc4c3)c2n1 [Example 58, Methyl 2-(1-(3-(quinolin-6-ylmethyl)-3H-[1,2,3]triazolo[4,5-b]pyridin-5-yl)ethylidene)hydrazinecarboxylate] |  | < 25% |  | 25 to 50% |  |
| CC(=NO)c1ccc2nnn(Cc3cc4cccnc4cc3F)c2n1 [Example 59, 1-(3-((7-fluoroquinolin-6-yl)methyl)-3H-[1,2,3]triazolo[4,5-b]pyridin-5-yl) ethanone oxime] |  |  |  |  | GI50 (MKN-45; [3]): 25 to 50 nM; IC50 ([2]; Table 4A): 25 to 50 nM |
| NC(=O)c1ccc(-c2ccc3ncn(Cc4cc5cccnc5cc4F)c3n2)cc1Cl [Example 1022, 2-chloro-4-(3-((7-fluoroquinolin-6-yl)methyl)-3H-imidazo[4,5-b]pyridin-5-yl)benzamide] |  |  | 50 to 75% |  | GI50 (MKN-45; [4]): 50 to 100 nM; IC50 ([2]; Table 4C): < 25 nM |
| CNC(=O)c1ccc(-c2ccc3ncn(Cc4ccc5ncccc5c4)c3n2)cc1Cl [Example 1017, 2-chloro-N-methyl-4-(3-(quinolin-6-ylmethyl)-3H-imidazo[4,5-b]pyridin-5-yl)benzamide] | 25 to 50% |  | < 25% |  |  |
